Where “and” joins values, the source holds several entries; their conditions need not be identical. Identical values can stand only once. Like-named read-outs stand apart in the source and are kept apart here.
Legend:
[1] = tested on: γ-globin proteins in CD34+-derived cells; test: γ-globin protein quantification by LC-MS/MS in CD34+-derived cells; type: cell-based, human
Experimental: The extraction and digestion of proteins were performed according to the method reported in a previous paper. Briefly, collected cell pellets, 120 μL of water, 12.5 μL of acetonitrile, and 12.5 μL of 1% formic acid were mixed and sonicated. The mixture was centrifuged to remove the cell debris and the supernatant was collected. Ten microliters of supernatant was reduced by dithiothreitol, alkylated with iodoacetamide, and digested with trypsin/Lys-C mix (Promega) in 50 mM ammonium bicarbonate (pH 8.0) (Sigma) at 37 °C overnight. For protein quantification analysis by LC–MS/MS, 10 pmol of stable isotope–labeled peptides (synthesized by the Support Unit for Bio-Material Analysis, RIKEN Center for Brain Science) were added to the digested sample as an internal standard. The digested sample was stored at −25 °C until analysis. The trypsinized sample was applied to an EASY-nLC 1000 liquid chromatograph (Thermo Fisher Scientific) and Q-Exactive mass spectrometer (Thermo Fisher Scientific) equipped with a nanospray ion source (Thermo Fisher Scientific). […]
Protein quantification was performed using Vanquish UHPLC (Thermo Fisher Scientific) and TSQ-Vantage EMR (Thermo Fisher Scientific) with a HESI-II ion source (Thermo Fisher Scientific) in multiple reaction monitoring (MRM) mode. […]

NSD3 = target: T1, NSD3 (Homo sapiens, UniProt Q9BZ95); test: Radioisotope-based methyltransferase assay (selectivity); type: biochemical; conditions: read-out: IC50
T1 construct: purchased Reaction Biology
T1 sequence (Q9BZ95 1-1437): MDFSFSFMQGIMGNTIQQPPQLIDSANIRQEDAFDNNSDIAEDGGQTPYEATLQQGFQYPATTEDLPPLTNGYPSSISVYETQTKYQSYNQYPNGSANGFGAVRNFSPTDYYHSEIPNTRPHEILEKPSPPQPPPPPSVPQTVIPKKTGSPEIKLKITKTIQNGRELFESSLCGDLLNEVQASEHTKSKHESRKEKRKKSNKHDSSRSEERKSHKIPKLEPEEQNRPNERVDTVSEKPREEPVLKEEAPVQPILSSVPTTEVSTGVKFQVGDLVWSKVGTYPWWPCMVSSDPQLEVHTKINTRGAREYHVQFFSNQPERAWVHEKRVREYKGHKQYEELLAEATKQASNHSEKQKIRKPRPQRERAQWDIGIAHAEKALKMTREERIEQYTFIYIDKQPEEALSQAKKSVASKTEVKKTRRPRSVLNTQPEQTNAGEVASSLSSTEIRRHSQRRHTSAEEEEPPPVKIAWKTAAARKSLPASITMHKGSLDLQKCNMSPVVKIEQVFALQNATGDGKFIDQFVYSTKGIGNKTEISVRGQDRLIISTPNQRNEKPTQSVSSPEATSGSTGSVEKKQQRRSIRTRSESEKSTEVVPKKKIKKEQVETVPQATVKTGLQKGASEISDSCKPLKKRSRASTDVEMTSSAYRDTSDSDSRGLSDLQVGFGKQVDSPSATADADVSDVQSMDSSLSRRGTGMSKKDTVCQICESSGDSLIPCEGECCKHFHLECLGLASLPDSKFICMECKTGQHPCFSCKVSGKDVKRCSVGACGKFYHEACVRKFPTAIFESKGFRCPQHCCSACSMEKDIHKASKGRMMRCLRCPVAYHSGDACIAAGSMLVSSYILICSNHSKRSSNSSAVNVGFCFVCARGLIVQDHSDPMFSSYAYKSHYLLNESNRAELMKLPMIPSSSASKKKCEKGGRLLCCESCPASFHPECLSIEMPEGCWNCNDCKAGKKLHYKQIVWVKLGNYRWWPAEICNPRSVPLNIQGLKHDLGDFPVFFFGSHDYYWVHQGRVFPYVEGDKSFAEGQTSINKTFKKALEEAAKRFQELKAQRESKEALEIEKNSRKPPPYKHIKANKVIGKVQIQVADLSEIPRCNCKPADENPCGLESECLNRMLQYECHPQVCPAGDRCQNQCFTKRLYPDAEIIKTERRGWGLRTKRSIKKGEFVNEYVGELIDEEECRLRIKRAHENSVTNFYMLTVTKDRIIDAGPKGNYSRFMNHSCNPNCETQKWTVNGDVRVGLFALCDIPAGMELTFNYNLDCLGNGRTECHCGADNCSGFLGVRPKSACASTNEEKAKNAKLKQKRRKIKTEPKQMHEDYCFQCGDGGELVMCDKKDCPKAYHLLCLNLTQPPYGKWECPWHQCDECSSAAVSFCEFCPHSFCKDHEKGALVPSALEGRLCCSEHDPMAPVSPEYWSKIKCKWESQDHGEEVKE

[2] = Liver microsomal stability assay, monkey; type: in vitro ADME; conditions: for Metabolic stability, % remaining of RK-701: Monkey
Experimental: [Human/Rat] Liver microsome analyses (human, rat) were performed in triplicate by the Sumika Chemical Analysis Service (SCAS) according to the standard protocols. […] [Dog/Monkey] Liver microsome analyses (dog, monkey) were performed in duplicate by RIKEN according to the same protocols as SCAS.

SMILES: NC(=O)NO [Hydroxyurea, hydroxyurea]
- Percentage of γ-globin proteins relative to total β-like globin proteins ([1]; day 11, 10 μM): 8.1% and 10.3%
- Percentage of γ-globin proteins relative to total β-like globin proteins ([1]; day 11, 50 μM): 8.1% and 10.3% and 14.3%

SMILES: Cc1c(C(=O)NC(CCC2CC2)C(=O)Nc2ccc(C#N)cc2)[nH]c2c1C(=O)CC(C)(C)C2 (centres unmarked) [RK-701]
- IC50 (NSD3; NSD3, 1 μM SAM): > 100 µM
- IC50 (NSD3; NSD3, RK-701 in duplicate): > 100 µM
- Metabolic stability, % remaining of RK-701 ([2]; Time 5, replicate values): 117%
- Metabolic stability, % remaining of RK-701 ([2]; Time 10, replicate values): 94.6%
- Metabolic stability, % remaining of RK-701 ([2]; Time 20, replicate values): 60%
- Metabolic stability, % remaining of RK-701 ([2]; Time 30, replicate values): 44.3%
- Metabolic stability, % remaining of RK-701 ([2]; Time 45, replicate values): 26%
- Metabolic stability, % remaining of RK-701 ([2]; Time 60, replicate values): 19.4%
- remaining at 5 min, 1 µM ([2]; monkey, liver microsomes, Metabolic stability, % remaining of RK-701, Monkey, Time 5, replicate values): 106%
- remaining at 10 min, 1 µM ([2]; monkey, liver microsomes, Metabolic stability, % remaining of RK-701, Monkey, Time 10, replicate values): 85.8%
- remaining at 20 min, 1 µM ([2]; monkey, liver microsomes, Metabolic stability, % remaining of RK-701, Monkey, Time 20, replicate values): 57.4%
- remaining at 30 min, 1 µM ([2]; monkey, liver microsomes, Metabolic stability, % remaining of RK-701, Monkey, Time 30, replicate values): 42.4%
- remaining at 45 min, 1 µM ([2]; monkey, liver microsomes, Metabolic stability, % remaining of RK-701, Monkey, Time 45, replicate values): 24.2%
- remaining at 60 min, 1 µM ([2]; monkey, liver microsomes, Metabolic stability, % remaining of RK-701, Monkey, Time 60, replicate values): 16.8%
- microsomal CLint at 1 μM ([2]; monkey, liver microsomes, read-out: Metabolic stability in liver microsomes CLint): 67 µL/min/mg
